The target in series [1] is T1, E. coli HtpG (Escherichia coli, UniProt P0A6Z3).
T1 construct: His6 (N); made in house; host or cells: E. coli BL21(DE3)
The series is described as follows: biochemical. Format: binding. As to the method: (§1) Escherichia coli (strain BL21/DE3) genomic DNA was isolated from a lab culture generated from the cloning/expression bacterium (ThermoFisher catalog no. EC0114) by overnight proteinase K digestion at 56°C, high-salt clarification, and ethanol precipitation. […] Human Hsp90-alpha sequences were derived from cDNA generated from total mRNA of the human breast epithelial line, MCF10A. HtpG DNA sequences were PCR cloned from these DNAs using primers designed to allow in-frame cloning with GFP in the isopropyl-β-D-thiogalactopyranoside (IPTG)-inducible bacterial expression vector. […] Fusion protein cloning was done using the ligation-independent cloning procedure via single-nucleotide T4 DNA polymerase treatment of vector and purified PCR products followed by annealing of complementary single-strand ends before transformation into DH5 E. coli. […] Fusion protein synthesis was induced by incubation with 1 mM IPTG or autoinduction ([17]).
(§2) γ-linked ATP Sepharose matrix was generated as described previously by the Haystead lab ([18]). […] The clarified lysate was added to a column containing ATP-bound Sepharose. The column was washed with low-salt buffer (150 mM NaCl, 25 mM HEPES, pH 7.4, 1 mM dithiothreitol [DTT], and 60 mM MgCl2), followed by high-salt buffer (1 M NaCl, 25 mM HEPES, pH 7.4, 1 mM DTT, 0.1% IGEPAL, and 60 mM MgCl2) and once again low-salt buffer to remove unbound protein. Next, the resin with bound proteins (50 μl) was transferred to a 0.2-μm polyvinylidene fluoride filter 96-well plate (Corning) sitting on top of a black flat-bottomed 96-well catch plate (Corning). […] The eluted proteins were measured in a fluorescent plate reader to detect the GFP.
(§3) Subtle single amino acid differences are present within the catalytic clefts of these proteins, especially between residues that contact the nucleotide. […] We therefore reasoned that these differences may be sufficient to design small molecules that can similarly discriminate HtpG of stealth organisms. To test this hypothesis, we utilized a fluorescent-linked enzyme chemoproteomic strategy (FLECS) assay to test known Hsp90 inhibitors ([18]) for binding to various HtpG constructs. First, we cloned and expressed in E. coli recombinant N-terminal GFP-fusion forms of HtpG from B. burgdorferi, E. coli, and Treponema denticola, the oral spirochete, as well as human Hsp90. We then incubated lysate after protein expression with an ATP Sepharose resin to enable binding. In this assay, ATP is tethered to Sepharose beads via its γ-phosphate, enabling the nucleotide to bind to ATP binding proteins such as Hsp90 and HtpG, but is nonhydrolyzable ([24]). After proteins are bound to the ATP Sepharose resin, small molecules with affinity for the ATP binding site will elute the GFP-fusion protein, which can readily be detected and quantified on a plate fluorometer.
(§4) These compounds were selected for testing based on their known binding to human Hsp90 ([25], [26]).

The target in series [2] is T2, B. burgdorferi HtpG (Borreliella burgdorferi, UniProt P42555).
T2 construct: His6 (N); made in house; host or cells: E. coli BL21(DE3)
T2 sequence (P42555 whole entry): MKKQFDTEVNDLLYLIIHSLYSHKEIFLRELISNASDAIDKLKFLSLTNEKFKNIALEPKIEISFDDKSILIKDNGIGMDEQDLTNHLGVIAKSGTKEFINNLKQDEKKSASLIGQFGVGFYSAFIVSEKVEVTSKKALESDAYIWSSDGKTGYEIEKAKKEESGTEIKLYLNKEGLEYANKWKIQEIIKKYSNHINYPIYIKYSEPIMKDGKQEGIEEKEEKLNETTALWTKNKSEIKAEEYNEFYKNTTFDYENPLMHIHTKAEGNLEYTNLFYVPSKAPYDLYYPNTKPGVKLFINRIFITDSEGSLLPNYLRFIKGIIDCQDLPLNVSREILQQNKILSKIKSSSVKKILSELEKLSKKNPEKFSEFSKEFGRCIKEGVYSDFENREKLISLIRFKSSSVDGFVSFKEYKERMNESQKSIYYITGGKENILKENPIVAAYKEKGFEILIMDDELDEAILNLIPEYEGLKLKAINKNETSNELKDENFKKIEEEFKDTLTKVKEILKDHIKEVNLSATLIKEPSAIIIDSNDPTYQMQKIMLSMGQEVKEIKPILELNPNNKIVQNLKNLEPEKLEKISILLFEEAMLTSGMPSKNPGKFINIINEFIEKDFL
Nature of the series: biochemical. Format: binding, Borrelia burgdorferi. As for the experimental part: as §1, §2, §3, §4

For series [3], the system named is B. burgdorferi. The series is described as follows: B. burgdorferi live bacterial imaging. Format: cell-based, Borrelia burgdorferi. As to the method: B. burgdorferi strain B31 was obtained from ATCC (ATCC catalog number ATCC-35210). Cultures were grown in Barbour-Stoenner-Kelly medium (BSK-II) created using the Barbour protocol ([19]) without gelatin and supplemented with 6 % rabbit serum (Pel-Freez catalog number 31128-5) at 34°C. Low-passage-number cultures (less than 4) were utilized. Later-stage morphological variants were obtained by increasing culture time to approximately 8 days to achieve a density of ∼10^8/ml counted under dark-field microscopy.
[…] germ agglutinin (WGA) conjugated with Alexa 488 at 10 μg per ml (Biotium catalog number 29022), and cells were then washed with fresh medium and mounted with Prolong Gold with 4′,6-diamidino-2-phenylindole (DAPI). Samples were imaged on a Zeiss Axio Imager upright microscope, using 63× oil objective, and visible light for differential […] contrast (DIC) imaging and excitation at 405, 488, or 633 nm for detection of DAPI, fluorescein isothiocyanate (FITC), or HS-198, respectively.

In series [4] the test system is B. burgdorferi. Nature of the series: In vivo mouse model of B. burgdorferi infection, imaging of tissue sections. On the set-up: species or system mice. To be noted: 25 nmol via tail vein, 3 weeks after infection, 6 h postinjection; ear, tibiotarsal joint, spleen. As to the method:
Ten-micrometer sections of frozen tissues were incubated with WGA (Biotium catalog number 29077) for 1 h in PBS. Tissues were washed and fixed with 3:1 methanol to acetic acid. Slides were incubated with FITC-conjugated B. burgdorferi polyclonal antibody (ThermoFisher, catalog number PA1-73005) for 1 h at room temperature. Noninjected or infected tissues were washed and incubated with 1 μM HS-198 for 30 min as control, and injected tissues were not incubated with HS-198. Slides were washed and mounted with DAPI Prolong Gold. Image studies were performed on a Zeiss Axio Imager upright microscope, using 63× oil objective, and visible light for DIC imaging and excitation at 405, 488, or 633 nm for detection of DAPI, FITC, or HS-198, respectively. Images were analyzed using FIJI software.
Seven C3H/HeN (Charles River Laboratories) female mice, 36 to 42 days old, were anesthetized with isoflurane gas, 1.5 to 2%. Mice were infected with 500,000 logarithmic-stage B. burgdorferi strain N40 spirochetes in <0.5 ml sterile saline by subcutaneous injection in the nape of the neck via 25-gauge needle. The N40 strain was selected for its infection kinetics and inflammatory pathology. The strain was obtained from an archival stock acquired by the Philip lab and was maintained exactly like strain B31 ([21]). […]

Series [5] addresses human Hsp90 (Homo sapiens, UniProt P07900). Nature of the series: FLECS assay, elution of GFP-Hsp90 from ATP Sepharose. Format: binding. Further details: His6 (N); made in house; host or cells: E. coli BL21(DE3). To be noted: in words. As to the method:
as §1, §2
Subtle single amino acid differences are present within the catalytic clefts of these proteins, especially between residues that contact the nucleotide. […] After proteins are bound to the ATP Sepharose resin, small molecules with affinity for the ATP binding site will elute the GFP-fusion protein, which can readily be detected and quantified on a plate fluorometer. […]

Structures are written as SMILES. Some results are limits rather than exact numbers.

T1 sequence (P0A6Z3 whole entry): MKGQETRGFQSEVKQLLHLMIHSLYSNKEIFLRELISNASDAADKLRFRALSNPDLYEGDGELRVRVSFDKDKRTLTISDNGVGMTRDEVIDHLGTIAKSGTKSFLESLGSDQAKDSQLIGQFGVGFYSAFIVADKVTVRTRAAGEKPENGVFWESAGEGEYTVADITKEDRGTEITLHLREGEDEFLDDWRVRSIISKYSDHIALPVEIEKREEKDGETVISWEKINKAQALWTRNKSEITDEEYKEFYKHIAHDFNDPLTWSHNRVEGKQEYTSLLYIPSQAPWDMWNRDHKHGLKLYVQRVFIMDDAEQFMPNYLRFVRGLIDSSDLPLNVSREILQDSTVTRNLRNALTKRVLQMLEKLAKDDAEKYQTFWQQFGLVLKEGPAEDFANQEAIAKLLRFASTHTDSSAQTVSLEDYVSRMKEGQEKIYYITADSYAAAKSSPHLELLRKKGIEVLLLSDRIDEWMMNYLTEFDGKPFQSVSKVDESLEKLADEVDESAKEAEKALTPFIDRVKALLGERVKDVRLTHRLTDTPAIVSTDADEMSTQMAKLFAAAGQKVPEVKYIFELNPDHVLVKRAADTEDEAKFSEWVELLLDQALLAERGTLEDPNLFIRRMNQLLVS

For `Cc1nn(-c2ccc(C(=O)N(C)C)c(NCCCOCCOCCOCCOCCOCCCNCc3ccc(C(=C\C=C4/N(CCCCS(=O)(=O)O)c5ccccc5C4(C)C)/C=C/C4=[N+](CCCCS(=O)(=O)[O-])c5ccccc5C4(C)C)cc3)c2)c2c1C(=O)CC(C)(C)C2` [HS-198], the Kd in series [1] was determined as 5.8 ± 0.6 µM; in series [2] it was 5.6 ± 3 µM. In addition, in series [1] (in words), the “Release of E. coli GFP-HtpG from ATP Sepharose” value is on record as “released”. Besides, the “Elution of B. burgdorferi GFP-HtpG from ATP Sepharose beads” value in series [2] (in words) is reported as “selectively eluted the bound fusion protein”. For the same compound, the “Uptake, share of B. burgdorferi spirochetes” value in series [3] (10 μM, incubated 1 h) is listed as more than 90%. In addition, the “Accumulation in B. burgdorferi morphological states” value in series [3] (10 μM, spirochetes, blebs, aggregates, colocalization with DAPI) is recorded as “accumulates in B. burgdorferi in all of its morphological states”. Moreover, the “Effect on B. burgdorferi morphology or motility” value in series [3] (overnight incubation, live B. burgdorferi) was “does not appear to affect”. Also, in series [4], the “Detection of B. burgdorferi in tissue sections of infected mice” value is listed as “localization to sites of B. burgdorferi infection in mice”. Moreover, the “Release of recombinant human GFP-Hsp90α from ATP Sepharose beads” value in series [5] is recorded as “did not”.

One may read the Kd as the constant that tells how readily two partners part at equilibrium.

These data come from article PMC8218751, “Visualizing Borrelia burgdorferi Infection Using a Small-Molecule Imaging Probe” (Journal of Clinical Microbiology, 2021).
